Experimental data published in patent US4933497A, “Preparation of hydroxybenzaldehydes by hydrocarbonylation of halophenols” (Rhone-Poulenc Chimie, priority 1988, dated 1990).

Experiments:
[1] = water
[2] = in water; cited from earlier work
[3] = in water (generally at 25° C.); cited from earlier work

pKa of the halophenol [1]	SMILES	pKa of the phosphine [2]	also measured
9.5	COc1cc(Br)ccc1O [4-bromo-2-methoxyphenol]	–	–
~9.5	CCOc1cc(Br)ccc1O [4-bromo-2-ethoxyphenol]	–	–
–	CCP(CC)CC [triethylphosphine]	8.69	–
–	CN(C)c1ccncc1 [4-dimethylaminopyridine]	–	pKa of the conjugate acid of the amine [3]: 9.55
–	c1ccc(P(c2ccccc2)c2ccccc2)cc1 [triphenylphosphine, reference compound]	2.74	–
–	c1ccc(CP(Cc2ccccc2)Cc2ccccc2)cc1 [tribenzylphosphine]	6.0	–
–	C1CCC(P(C2CCCCC2)C2CCCCC2)CC1 [tricyclohexylphosphine]	9.7	–

SMILES	pKa of the halophenol [1]	pKa of the phosphine [2]	also measured
Oc1ccccc1Br [2-bromophenol]	8.55	–	–
